# Source: patent US9732076B2, “Solid oral dosage formulation of HCV inhibitor in the amorphous state” (Boehringer Ingelheim International GmbH, priority 2013, dated 2017)
# Test: Ames test / genotoxicity of degradation product
smiles,measurement,value
C=C[C@@H]1C[C@]1(N)C(=O)O [Compound X],Ames result / genotoxicity,Ames positive
